# In patent US20050038118A1, “Treatment” (priority 2003, published 2005):
# How the values were obtained:
# [1] = tested on: human Rhinovirus (HRV); test: In vivo Study II: human volunteers pre-treated with CLA, intranasal human Rhinovirus challenge, Jackson Score
# Procedure: The following protocol was used in all of Examples 4 to 10.
# 76 human volunteers suffering from the common cold were used in the study. 43 subjects were administered conjugated linoleic acid (CLA) and the other 33 subjects were given a placebo. The CLA used contained a 40:60 mixture of cis9, trans11: trans10, cis12 isomers.
# The 43 subjects underwent pre-treatment with CLA at a level of 2 g/day for 4 weeks. 33 subjects underwent pre-treatment with placebo (HOSF; high oleic sunflower […]).
# (§1) All subjects were inoculated at day 0 by intranasal exposure to human Rhinovirus (HRV) and the two groups were monitored daily for the next 5 days. The effects of the two types of treatment were determined by using the Jackson Score (validated in severity of symptoms) and the effects of the symptoms on its own on day 0-5.
# Symptoms were assessed using a Jackson Score validated in severity from 0=absent to 3=very severe.
# [2] = tested on: human Rhinovirus (HRV); test: In vivo study: human volunteers pre-treated with CLA, intranasal human Rhinovirus challenge, Jackson Score; settings: CLA 1.7 g/day for 4 weeks pre-treatment
# Procedure: 45 human volunteers suffering from the common cold were used in the study. 21 subjects were administered conjugated linoleic acid (CLA) and the other 24 subjects were given a placebo.
# The 21 subjects underwent pre-treatment with CLA at a level of 1.7 g/day for 4 weeks. 24 subjects underwent pre-treatment with placebo (HOSF; high oleic sunflower […]).
# as §1
# Symptoms were assessed using a Jackson Score validated in severity from 0=absent to 3=very severe. The following symptoms were rated:
# The primary endpoint for the study was the frequency of clinical colds defined in accordance with the modified Jackson criteria.
# Total symptoms of the individuals were checked in the morning (am) and in the afternoon (pm). The results of the test in the afternoon are shown in FIG. 2 and the results of the test in the morning are shown in FIG. 3; both plots are of Total Symptom Score against number of days. In FIGS. 2 and 3, results for the group of people treated with CLA are shown on the left in grey (Series 1) and for people given the placebo are shown on the right in dark grey (Series 2).
# The symptoms assessed were sneezing, runny nose, obstruction, stuffiness, sore throat, cough, headache, malaise and chilliness. The total symptom score was determined by adding the scores for the symptoms during the 5 day period. FIG. 4 is a graph showing total symptom score and individual symptoms for the CLA group (light grey bars) and the placebo group (dark grey bars).
# [3] = CLA 2 g/day for 4 weeks pre-treatment
substance,measurement,setting,value
conjugated linoleic acid [CLA],reduction in Jackson cold severity versus placebo,[1]; [3],about 12%
same,reduction in total Jackson score over 5 days versus placebo,[1]; [3],about 7%
same,average total Jackson score over 5 days,"[1]; CLA 2 g/day for 4 weeks pre-treatment, AM and PM, five days post inoculation, placebo 9.30",8.72
same,total runny nose score in 5 days,"[1]; CLA 2 g/day for 4 weeks pre-treatment, ranking 1-3, AM and PM, five days, placebo 2.14",2.025
same,total sneezing score in 5 days,"[1]; CLA 2 g/day for 4 weeks pre-treatment, ranking 1 to 3, AM and PM, five days, placebo 1.2",0.5
same,total sore throat score for 5 days,"[1]; CLA 2 g/day for 4 weeks pre-treatment, ranking 1 to 3, AM and PM, five days, placebo 3.1",2.5
same,total symptom score over 5 days,"[1]; CLA 2 g/day for 4 weeks pre-treatment, sum of symptom scores during 5 day period, placebo 12.1",11.3
same,"Jackson cold severity, average score","[1]; CLA 2 g/day for 4 weeks pre-treatment, total score (from 10), AM and PM, five days post inoculation, placebo 1.09",0.975
same,volunteers not infected,"[1]; CLA (40:60 cis9,trans11:trans10,cis12) 2 g/day for 4 weeks pre-treatment, all placebo volunteers infected",Seven out of the 43
same,severity of the common cold (Jackson Score) versus placebo,"[2]; at day 2 after HRV inoculation, FIG. 1",lower
same,total symptom score (am and pm) versus placebo,"[2]; day 2 until the end of the study, FIGS. 2 and 3",lower
same,severity of the symptoms assessed separately versus placebo,"[2]; scores added over 5 day period, FIG. 4",very clearly lower
